Assay results reported in ChEMBL document CHEMBL1128830, “Synthesis and antibacterial activity of FR21818, a new, potent 1-methylcarbapenem” (1995).
Converted amounts (≈) assume the structure as drawn.

Legend:
[1] = biological target: T1, Dipeptidase 1 (Homo sapiens) (UniProt P16444); assay: In vitro renal dehydropeptidase I (DHP-I) stability relative to meropenem
T1 sequence (whole entry): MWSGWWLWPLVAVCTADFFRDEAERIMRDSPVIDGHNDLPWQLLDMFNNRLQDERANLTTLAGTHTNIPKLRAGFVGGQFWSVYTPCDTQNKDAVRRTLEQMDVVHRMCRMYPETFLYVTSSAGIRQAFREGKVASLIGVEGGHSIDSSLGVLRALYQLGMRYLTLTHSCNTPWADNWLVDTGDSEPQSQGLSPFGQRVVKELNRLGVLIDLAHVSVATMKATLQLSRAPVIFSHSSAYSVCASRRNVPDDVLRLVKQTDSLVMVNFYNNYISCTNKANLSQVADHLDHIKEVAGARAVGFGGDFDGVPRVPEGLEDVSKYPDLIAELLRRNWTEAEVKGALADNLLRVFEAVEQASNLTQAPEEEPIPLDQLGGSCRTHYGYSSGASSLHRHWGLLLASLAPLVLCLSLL

Proteus vulgaris = assay: Minimum inhibitory concentration required for antibacterial activity against Proteus vulgaris IAM 1025; format: functional
Mus musculus = assay: […] percent urinary recovery in mice after subcutaneous administration at a dose of 20 mg/Kg; format: functional, organism-based; conditions: Urine
Staphylococcus aureus [2] = assay: Minimum inhibitory concentration required for antibacterial activity against Staphylococcus aureus 209P JC-1; format: functional
Escherichia coli = assay: Minimum inhibitory concentration required for antibacterial activity against Escherichia coli NIHJ JC-2; format: functional
Staphylococcus aureus [3] = assay: Minimum inhibitory concentration required for antibacterial activity against methicillin-resistant Staphylococcus aureus 3004; format: functional
Pseudomonas aeruginosa = assay: Minimum inhibitory concentration required for antibacterial activity against Pseudomonas aeruginosa 26; format: functional

SMILES	Stability [1]	MIC (Proteus vulgaris)	Recovery (Mus musculus)	MIC (Staphylococcus aureus [2])	MIC (Escherichia coli)	MIC (Staphylococcus aureus [3])	MIC (Pseudomonas aeruginosa)
C[C@@H](O)[C@H]1C(=O)N2C(C(=O)O)=C(S[C@@H]3CN[C@H](Cc4cc[n+](CCO)n4C)C3)[C@H](C)[C@H]12.[Cl-]	26%	1.56 µg/mL	68.9%	0.05 µg/mL	0.2 µg/mL	6.25 µg/mL	0.2 µg/mL
C[C@@H](O)[C@H]1C(=O)N2C(C(=O)[O-])=C(SC3Cn4cnc[n+]4C3)[C@H](C)[C@H]12 (stereo partly specified) [BIAPENEM]	15.4%	3.13 µg/mL (≈ 8.93 µM)	70.7%	0.1 µg/mL (≈ 0.285 µM)	0.39 µg/mL (≈ 1.11 µM)	25 µg/mL (≈ 71.3 µM)	0.2 µg/mL (≈ 0.571 µM)
C[C@@H](O)[C@H]1C(=O)N2C(C(=O)O)=C(S[C@@H]3CN[C@H](C(=O)N(C)C)C3)[C@H](C)[C@H]12 [MEROPENEM]	100%	0.1 µg/mL (≈ 0.261 µM)	25%	0.1 µg/mL (≈ 0.261 µM)	< 0.025 µg/mL	25 µg/mL (≈ 65.2 µM)	0.2 µg/mL (≈ 0.522 µM)
